Legend:
[1] = test system: human osteosarcoma cell line SJSA-1; assay: Inhibition of proliferation of human osteosarcoma cell line SJSA-1 (DAPI staining, In Cell Analyzer); settings: Homo sapiens, SJSA-1, 72 h, read-out: IC50 (nM), inhibitory activity on proliferation of human osteosarcoma cell line SJSA-1, SJSA-1, incubated 72 h
[2] = molecular target: T1, MDM2 (Homo sapiens, UniProt Q00987); assay: Inhibition test of MDM2-P53 (GST-MDM2, Biotin-P53, Anti-GST-Tb, SA-XL665); format: binding
T1 construct: made in house
Outline: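 HTRF-type assay using 4 nM GST-MDM2 (final), Biotin-P53, SA-XL665 and anti-GST-Tb in PBS with 0.1% BSA, 5 mM DTT and 1 mM AEBSF. Compounds in 5-fold serial dilutions over twelve points; incubation 90 min at 25° C with shaking before plate-reader read-out.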

T1 sequence (Q00987 whole entry): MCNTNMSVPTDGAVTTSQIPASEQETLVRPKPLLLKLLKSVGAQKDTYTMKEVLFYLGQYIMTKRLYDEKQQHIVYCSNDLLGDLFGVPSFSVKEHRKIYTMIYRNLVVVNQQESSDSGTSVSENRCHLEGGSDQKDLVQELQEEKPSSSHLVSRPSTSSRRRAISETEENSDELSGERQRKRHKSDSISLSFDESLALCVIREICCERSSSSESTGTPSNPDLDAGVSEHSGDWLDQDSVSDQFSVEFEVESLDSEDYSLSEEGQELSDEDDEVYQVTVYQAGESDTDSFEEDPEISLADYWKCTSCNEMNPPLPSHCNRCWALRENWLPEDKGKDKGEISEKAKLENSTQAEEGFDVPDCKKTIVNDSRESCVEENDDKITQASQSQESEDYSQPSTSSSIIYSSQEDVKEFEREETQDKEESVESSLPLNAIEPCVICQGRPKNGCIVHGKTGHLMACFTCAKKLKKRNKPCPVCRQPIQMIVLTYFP

| SMILES | IC50 [1] [nM] | IC50 [2] [nM] |
| --- | --- | --- |
| COc1ncc(-c2nc3c(n2C(C)C)[C@@]2(C(=O)Nc4cc(Cl)ccc42)N(c2ccc(F)c(Cl)c2)C3=O)c(OC)n1 [Example S-3, (S)-6-chloro-5′-(3-chloro-4-fluorophenyl)-2′-(2,4-dimethoxypyrimidin-5-yl)-3′-isopropyl-3′H-spiro[dihydroindole-3,4′-pyrrolo[3,4-d]imidazole]-2,6′(5′H)-dione] | 174 | 4.92 |
| COc1cc(F)ccc1-c1nc2c(n1C(C)C)[C@@]1(C(=O)Nc3cc(Cl)ccc31)N(c1cc(Cl)ccc1C)C2=O [Example S-4, (S)-6-chloro-5′-(5-chloro-2-methylphenyl)-2′-(4-fluoro-2-methoxyphenyl)-3′-isopropyl-3′H-spiro[dihydroindole-3,4′-pyrrolo[3,4-d]imidazole]-2,6′(5′H)-dione] | 7.92 | 3.37 |
| COc1ccccc1-c1nc2c(n1C(C)C)[C@@]1(C(=O)Nc3cc(Cl)ccc31)N(c1cc(Cl)ccc1C)C2=O [Example S-5, (S)-6-chloro-5′-(5-chloro-2-methylphenyl)-3′-isopropyl-2′-(2-methoxyphenyl)-3′H-spiro[dihydroindole-3,4′-pyrrolo[3,4-d]imidazole]-2,6′(5′H)-dione] | 25.4 | 3.22 |
| CCc1ccccc1-c1nc2c(n1C(C)C)[C@@]1(C(=O)Nc3cc(Cl)ccc31)N(c1cc(Cl)ccc1C)C2=O [Example S-7, (S)-6-chloro-5′-(5-chloro-2-methylphenyl)-2′-(2-ethylphenyl)-3′-isopropylisopropyl-3′H-spiro[dihydroindole-3,4′-pyrrolo[3,4-d]imidazole]-2,6′(5′H)-dione] | 1270 | 73.2 |
| COc1ccc(-c2nc3c(n2C(C)C)[C@@]2(C(=O)Nc4cc(Cl)ccc42)N(c2cc(Cl)ccc2C)C3=O)c(OC)n1 [Example S-8, (S)-6-chloro-5′-(5-chloro-2-methylphenyl)-2′-(2,6-dimethoxypyridin-3-yl)-3′-isopropyl-3′H-spiro[dihydroindole-3,4′-pyrrolo[3,4-d]imidazole]-2,6′(5′H)-dione] | 10.3 | 3.29 |
| COc1cnccc1-c1nc2c(n1C(C)C)[C@@]1(C(=O)Nc3cc(Cl)ccc31)N(c1cc(Cl)ccc1C)C2=O [Example S-10, (S)-6-chloro-5′-(5-chloro-2-methylphenyl)-3′-isopropyl-2′-(3-methoxypyridin-4-yl)-3′H-spiro[dihydroindole-3,4′-pyrrolo[3,4-d]imidazole]-2,6′(5′H)-dione] | 124 | 2.77 |
| COc1cc(C#N)ccc1-c1nc2c(n1C(C)C)[C@@]1(C(=O)Nc3cc(Cl)ccc31)N(c1cc(Cl)ccc1C)C2=O [Example S-12, (S)-4-(6-chloro-5′-(5-chloro-2-methylphenyl)-3′-isopropyl-2,6′-dioxo-5′,6′-dihydro-3′H-spiro[dihydroindole-3,4′-pyrrolo[3,4-d]imidazole]-2′-yl)-3-methoxybenzonitrile] | 5.27 | 3.55 |
| COc1ccc(C#N)cc1-c1nc2c(n1C(C)C)[C@@]1(C(=O)Nc3cc(Cl)ccc31)N(c1cc(Cl)ccc1C)C2=O [Example S-13, (S)-3-(6-chloro-5′-(5-chloro-2-methylphenyl)-3′-isopropyl-2,6′-dioxo-5′,6′-dihydro-3′H-spiro[dihydroindole-3,4′-pyrrolo[3,4-d]imidazole]-2′-yl)-4-methoxybenzonitrile] | 5.95 | 2.55 |
| CCc1ccc(Cl)cc1N1C(=O)c2nc(-c3cnc(OC)nc3OC)n(C(C)C)c2[C@@]12C(=O)Nc1cc(Cl)ccc12 [Example S-15, (S)-6-chloro-5′-(5-chloro-2-ethylphenyl)-2′-(2,4-dimethoxypyrimidin-5-yl)-3′-isopropyl-3′H-spiro[dihydroindole-3,4′-pyrrolo[3,4-d]imidazole]-2,6′(5′H)-dione] | 10.9 | 1.62 |
| COc1ncc(-c2nc3c(n2C(C)C)[C@@]2(C(=O)Nc4cc(Cl)ccc42)N(c2cc(Cl)cn(C)c2=O)C3=O)c(OC)n1 [Example S-16, (S)-6-chloro-5′-(5-chloro-1-methyl-2-oxo-1,2-dihydropyridin-3-yl)-2′-(2,4-dimethoxypyrimidin-5-yl)-3′-isopropyl-3′H-spiro[dihydroindole-3,4′-pyrrolo[3,4-d]imidazole]-2,6′(5′H)-dione] | 3560 | 3.39 |
| COc1ncc(-c2nc3c(n2C(C)C)[C@@]2(C(=O)Nc4cc(Cl)ccc42)N(c2cc(Cl)ccc2OC)C3=O)c(OC)n1 [Example S-17, (S)-6-chloro-5′-(5-chloro-2-methoxyphenyl)-2′-(2,4-dimethoxypyrimidin-5-yl)-3′-isopropyl-3′H-spiro[dihydroindole-3,4′-pyrrolo[3,4-d]imidazole]-2,6′(5′H)-dione] | 201 | 3.75 |
| COc1ccncc1-c1nc2c(n1C(C)C)[C@@]1(C(=O)Nc3cc(Cl)ccc31)N(c1cc(Cl)ccc1C)C2=O [Example S-18, (S)-6-chloro-5′-(5-chloro-2-methylphenyl)-3′-isopropyl-2′-(4-methoxypyridin-3-yl)-3′H-spiro[dihydroindole-3,4′-pyrrolo[3,4-d]imidazole]-2,6′(5′H)-dione] | 13.9 | 1.43 |
| COc1ccc(C(C)C)c(-c2nc3c(n2C(C)C)[C@@]2(C(=O)Nc4cc(Cl)ccc42)N(c2cc(Cl)ccc2C)C3=O)c1 [Example S-19, (S)-6-chloro-5′-(5-chloro-2-methylphenyl)-3′-isopropyl-2′-(2-isopropyl-5-methoxyphenyl)-3′H-spiro[dihydroindole-3,4′-pyrrolo[3,4-d]imidazole]-2,6′(5′H)-dione] | 352 | 34.6 |
| COc1ncc(-c2nc3c(n2C(C)C)[C@@]2(C(=O)Nc4cc(Cl)ccc42)N(c2ccc(C)c(Cl)c2)C3=O)c(OC)n1 [Example S-20, (S)-6-chloro-5′-(3-chloro-4-methylphenyl)-2′-(2,4-dimethoxypyrimidin-5-yl)-3′-isopropyl-3′H-spiro[dihydroindole-3,4′-pyrrolo[3,4-d]imidazole]-2,6′(5′H)-dione] | 48.1 | 4.39 |
| CNC(=O)c1ccc(OC)c(-c2nc3c(n2C(C)C)[C@@]2(C(=O)Nc4cc(Cl)ccc42)N(c2cc(Cl)ccc2C)C3=O)c1 [Example S-21, (S)-3-(6-chloro-5′-(5-chloro-2-methylphenyl)-3′-isopropyl-2,6′-dioxo-5′,6′-dihydro-3′H-spiro[dihydroindole-3,4′-pyrrolo[3,4-d]imidazole]-2′-yl)-4-methoxy-N-methylbenzamide] | 62.2 | 1.34 |
| COc1ccc(C(=O)N(C)C)cc1-c1nc2c(n1C(C)C)[C@@]1(C(=O)Nc3cc(Cl)ccc31)N(c1cc(Cl)ccc1C)C2=O [Example S-22, (S)-3-(6-chloro-5′-(5-chloro-2-methylphenyl)-3′-isopropyl-2,6′-dioxo-5′,6′-dihydro-3′H-spiro[dihydroindole-3,4′-pyrrolo[3,4-d]imidazole]-2′-yl)-4-methoxy-N,N-dimethylbenzamide] | 7.46 | 1.1 |
| COc1cc(C)ccc1-c1nc2c(n1C(C)C)[C@@]1(C(=O)Nc3cc(Cl)ccc31)N(c1cc(Cl)ccc1C)C2=O [Example S-24, (S)-6-chloro-5′-(5-chloro-2-methylphenyl)-3′-isopropyl-2′-(2-methoxy-4-methylphenyl)-3′H-spiro[dihydroindole-3,4′-pyrrolo[3,4-d]imidazole]-2,6′(5′H)-dione] | 4.17 | 4.4 |
| CNc1ccc(-c2nc3c(n2C(C)C)[C@@]2(C(=O)Nc4cc(Cl)ccc42)N(c2cc(Cl)ccc2C)C3=O)c(OC)c1 [Example S-25, (S)-6-chloro-5′-(5-chloro-2-methylphenyl)-3′-isopropyl-2′-(2-methoxy-4-(methylamine)phenyl)-3′H-spiro[dihydroindole-3,4′-pyrrolo[3,4-d]imidazole]-2,6′(5′H)-dione] | 8.83 | 2.52 |
| CCn1c(-c2cnc(OC)nc2OC)nc2c1[C@@]1(C(=O)Nc3cc(Cl)ccc31)N(c1cc(Cl)ccc1C)C2=O [Example S-26, (S)-6-chloro-5′-(5-chloro-2-methylphenyl)-2′-(2,4-dimethoxypyrimidin-5-yl)-3′-ethyl-3′H-spiro[dihydroindole-3,4′-pyrrolo[3,4-d]imidazole]-2,6′(5′H)-dione] | 22.2 | 2.37 |
| COc1ncncc1-c1nc2c(n1C(C)C)[C@@]1(C(=O)Nc3cc(Cl)ccc31)N(c1cc(Cl)ccc1C)C2=O [Example S-27, (S)-6-chloro-5′-(5-chloro-2-methylphenyl)-3′-isopropyl-2′-(4-methoxypyrimidin-5-yl)-3′H-spiro[dihydroindole-3,4′-pyrrolo[3,4-d]imidazole]-2,6′(5′H)-dione] | 119 | 3.45 |
| COc1ncc(-c2nc3c(n2C2CC2)[C@@]2(C(=O)Nc4cc(Cl)ccc42)N(c2cc(Cl)ccc2C)C3=O)c(OC)n1 [Example S-28, (S)-6-chloro-5′-(5-chloro-2-methylphenyl)-3′-cyclopropane-2′-(2,4-dimethoxypyrimidin-5-yl)-3′H-spiro[dihydroindole-3,4′-pyrrolo[3,4-d]imidazole]-2,6′(5′H)-dione] | 1290 | 54.3 |
| COc1ccc(C(N)=O)cc1-c1nc2c(n1C(C)C)[C@@]1(C(=O)Nc3cc(Cl)ccc31)N(c1cc(Cl)ccc1C)C2=O [Example S-29, (S)-3-(6-chloro-5′-(5-chloro-2-methylphenyl)-3′-isopropyl-2,6′-dioxo-5′,6′-dihydro-3′H-spiro[dihydroindole-3,4′-pyrrolo[3,4-d]imidazole]-2′-yl)-4-methoxybenzamide] | 196 | 1.01 |

Source: patent US11339171B2, “MDM2 inhibitors” (Gan & Lee Pharmaceuticals, priority 2017, dated 2022)
